From paper PMC11357990, “A first-in-class selective inhibitor of EGFR and PI3K offers a single-molecule approach to targeting adaptive resistance” (Nature Cancer, 2024)

Columns and labels:
[1] = target: T1, 5-HT2A (h) (agonist radioligand) (Homo sapiens, UniProt P28223); test: biochemical; parameters: Eurofins SafetyScreen 87 binding part: inhibition of control specific ligand binding, single concentration; settings: read-out: Binding / ================================================= / % Inhibition of Control Specific Binding
T1 construct: gene HTR2A

[2] = target: T2, Potassium Channel hERG (human)- [3H] Dofetilide (Homo sapiens, UniProt Q12809); test: in vitro
T2 construct: gene KCNH2

[3] = target: T3, AT1 (h) (antagonist radioligand) (Homo sapiens, UniProt P30556); test: biochemical; settings: read-out: Binding / ================================================= / % Inhibition of Control Specific Binding
T3 construct: gene AGTR1

[4] = target: T4, RARalpha (h) (agonist radioligand) (Homo sapiens, UniProt P10276); test: biochemical; settings: read-out: Binding / ================================================= / % Inhibition of Control Specific Binding
T4 construct: gene RARA

[5] = target: T5, 5-HT1A (h) (agonist radioligand) (Homo sapiens, UniProt P08908); test: biochemical; settings: read-out: Binding / ================================================= / % Inhibition of Control Specific Binding
T5 construct: gene HTR1A

[6] = target: T6, mGluR5 (h) (agonist radioligand) (Homo sapiens, UniProt P41594); test: biochemical; settings: read-out: Binding / ================================================= / % Inhibition of Control Specific Binding
T6 construct: gene GRM5

[7] = target: T7, alpha 2A (h) (antagonist radioligand) (Homo sapiens, UniProt P08913); test: biochemical; settings: read-out: Binding / ================================================= / % Inhibition of Control Specific Binding
T7 construct: gene ADRA2A

[8] = target: T8, M3 (h) (antagonist radioligand) (Homo sapiens, UniProt P20309); test: biochemical; settings: read-out: Binding / ================================================= / % Inhibition of Control Specific Binding
T8 construct: gene CHRM3

[9] = target: T9, MAO-A (antagonist radioligand) (Rattus norvegicus, UniProt P21396); test: biochemical; settings: read-out: Binding / ================================================= / % Inhibition of Control Specific Binding
T9 construct: gene Maoa

[10] = target: T10, dopamine transporter (h) (antagonist radioligand) (Homo sapiens, UniProt Q01959); test: biochemical; settings: read-out: Binding / ================================================= / % Inhibition of Control Specific Binding
T10 construct: gene SLC6A3

[11] = target: T11, B2 (h) (agonist radioligand) (Homo sapiens, UniProt P30411); test: biochemical; settings: read-out: Binding / ================================================= / % Inhibition of Control Specific Binding
T11 construct: gene BDKRB2

[12] = target: T12, CB1 (h) (agonist radioligand) (Homo sapiens, UniProt P21554); test: biochemical; settings: read-out: Binding / ================================================= / % Inhibition of Control Specific Binding
T12 construct: gene CNR1

[13] = target: T13, PPARgamma h) (agonist radioligand) (Homo sapiens, UniProt P37231); test: biochemical; settings: read-out: Binding / ================================================= / % Inhibition of Control Specific Binding
T13 construct: gene PPARG

[14] = target: PI3Kα (Homo sapiens, UniProt P42336); test: biochemical kinase assay at ATP Km apparent; parameters: gene PIK3CA
[15] = target: EGFR (Homo sapiens, UniProt P00533); test: X-ray cocrystal structure ([…] Å); purified kinase assay IC50; format: biochemical; parameters: G696-G1022
Sequence of EGFR (P00533 696-1022): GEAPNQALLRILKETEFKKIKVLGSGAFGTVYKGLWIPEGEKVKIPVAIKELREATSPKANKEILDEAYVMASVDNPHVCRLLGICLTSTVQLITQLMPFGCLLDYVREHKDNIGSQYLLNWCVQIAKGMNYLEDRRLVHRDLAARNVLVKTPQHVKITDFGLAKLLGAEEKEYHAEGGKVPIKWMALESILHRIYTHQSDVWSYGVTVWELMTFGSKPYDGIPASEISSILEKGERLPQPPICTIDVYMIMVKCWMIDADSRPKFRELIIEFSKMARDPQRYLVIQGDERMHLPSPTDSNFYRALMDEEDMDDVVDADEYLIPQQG

T7 sequence (P08913 whole entry): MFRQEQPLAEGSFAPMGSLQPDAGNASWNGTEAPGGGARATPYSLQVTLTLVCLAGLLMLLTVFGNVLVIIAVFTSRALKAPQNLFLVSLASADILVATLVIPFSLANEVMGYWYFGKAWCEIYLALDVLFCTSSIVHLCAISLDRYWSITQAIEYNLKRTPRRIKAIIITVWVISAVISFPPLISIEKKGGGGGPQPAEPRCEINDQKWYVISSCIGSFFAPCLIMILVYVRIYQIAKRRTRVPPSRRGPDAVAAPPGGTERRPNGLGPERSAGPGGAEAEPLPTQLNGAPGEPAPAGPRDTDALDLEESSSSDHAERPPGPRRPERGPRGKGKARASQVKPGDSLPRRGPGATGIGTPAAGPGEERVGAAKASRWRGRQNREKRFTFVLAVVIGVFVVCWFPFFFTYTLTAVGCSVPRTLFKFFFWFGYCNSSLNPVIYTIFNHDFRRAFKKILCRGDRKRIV
T9 sequence (P21396 whole entry): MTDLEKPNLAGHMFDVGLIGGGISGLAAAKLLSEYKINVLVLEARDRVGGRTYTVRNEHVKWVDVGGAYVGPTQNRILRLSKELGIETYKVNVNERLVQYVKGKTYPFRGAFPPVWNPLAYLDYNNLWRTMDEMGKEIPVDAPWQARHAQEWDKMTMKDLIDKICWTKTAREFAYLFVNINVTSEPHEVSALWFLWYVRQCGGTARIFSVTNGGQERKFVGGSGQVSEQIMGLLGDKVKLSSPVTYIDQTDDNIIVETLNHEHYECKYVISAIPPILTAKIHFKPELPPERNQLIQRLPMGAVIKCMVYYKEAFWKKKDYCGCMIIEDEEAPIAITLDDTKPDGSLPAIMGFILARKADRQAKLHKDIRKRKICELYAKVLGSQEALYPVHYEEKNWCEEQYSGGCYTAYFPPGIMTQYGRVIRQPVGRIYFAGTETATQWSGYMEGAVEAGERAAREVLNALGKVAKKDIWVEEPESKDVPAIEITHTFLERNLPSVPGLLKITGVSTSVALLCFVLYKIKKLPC
T8 sequence (P20309 whole entry): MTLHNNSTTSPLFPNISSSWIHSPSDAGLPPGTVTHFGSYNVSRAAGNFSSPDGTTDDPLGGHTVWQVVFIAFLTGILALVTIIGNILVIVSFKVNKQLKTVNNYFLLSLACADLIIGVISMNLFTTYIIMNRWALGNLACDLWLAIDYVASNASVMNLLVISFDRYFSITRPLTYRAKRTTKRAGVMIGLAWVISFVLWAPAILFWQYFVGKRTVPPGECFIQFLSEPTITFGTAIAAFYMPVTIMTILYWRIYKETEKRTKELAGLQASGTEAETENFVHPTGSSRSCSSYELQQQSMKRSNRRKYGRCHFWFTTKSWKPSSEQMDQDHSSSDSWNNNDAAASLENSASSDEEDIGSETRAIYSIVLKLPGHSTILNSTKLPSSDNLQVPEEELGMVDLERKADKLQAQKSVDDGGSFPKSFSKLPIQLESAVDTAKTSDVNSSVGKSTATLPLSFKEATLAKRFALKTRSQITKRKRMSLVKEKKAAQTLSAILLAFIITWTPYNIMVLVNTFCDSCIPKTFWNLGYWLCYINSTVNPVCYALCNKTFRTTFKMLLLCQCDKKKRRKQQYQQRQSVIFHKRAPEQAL
T1 sequence (P28223 whole entry): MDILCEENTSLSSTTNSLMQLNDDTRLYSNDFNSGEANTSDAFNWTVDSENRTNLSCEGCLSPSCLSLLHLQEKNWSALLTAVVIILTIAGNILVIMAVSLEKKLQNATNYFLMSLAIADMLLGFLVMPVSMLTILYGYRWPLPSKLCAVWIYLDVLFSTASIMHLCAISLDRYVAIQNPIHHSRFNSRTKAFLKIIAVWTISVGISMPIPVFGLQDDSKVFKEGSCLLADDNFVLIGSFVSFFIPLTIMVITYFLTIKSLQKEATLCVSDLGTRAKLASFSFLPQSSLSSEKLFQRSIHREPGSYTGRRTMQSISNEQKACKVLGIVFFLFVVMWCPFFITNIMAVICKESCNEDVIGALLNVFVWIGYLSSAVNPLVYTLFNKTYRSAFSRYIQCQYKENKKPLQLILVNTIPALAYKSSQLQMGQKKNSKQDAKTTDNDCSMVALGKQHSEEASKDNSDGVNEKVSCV
T11 sequence (P30411 whole entry): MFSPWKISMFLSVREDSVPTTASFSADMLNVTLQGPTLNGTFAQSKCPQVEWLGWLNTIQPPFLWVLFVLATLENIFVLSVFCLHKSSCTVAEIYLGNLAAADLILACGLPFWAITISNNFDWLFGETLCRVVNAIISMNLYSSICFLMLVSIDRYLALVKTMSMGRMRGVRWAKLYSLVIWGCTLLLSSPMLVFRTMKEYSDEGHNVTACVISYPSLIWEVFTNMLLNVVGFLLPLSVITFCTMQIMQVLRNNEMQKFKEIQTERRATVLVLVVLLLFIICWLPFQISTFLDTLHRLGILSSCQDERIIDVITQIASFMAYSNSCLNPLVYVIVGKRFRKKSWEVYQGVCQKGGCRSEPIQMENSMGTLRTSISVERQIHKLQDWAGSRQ
T10 sequence (Q01959 whole entry): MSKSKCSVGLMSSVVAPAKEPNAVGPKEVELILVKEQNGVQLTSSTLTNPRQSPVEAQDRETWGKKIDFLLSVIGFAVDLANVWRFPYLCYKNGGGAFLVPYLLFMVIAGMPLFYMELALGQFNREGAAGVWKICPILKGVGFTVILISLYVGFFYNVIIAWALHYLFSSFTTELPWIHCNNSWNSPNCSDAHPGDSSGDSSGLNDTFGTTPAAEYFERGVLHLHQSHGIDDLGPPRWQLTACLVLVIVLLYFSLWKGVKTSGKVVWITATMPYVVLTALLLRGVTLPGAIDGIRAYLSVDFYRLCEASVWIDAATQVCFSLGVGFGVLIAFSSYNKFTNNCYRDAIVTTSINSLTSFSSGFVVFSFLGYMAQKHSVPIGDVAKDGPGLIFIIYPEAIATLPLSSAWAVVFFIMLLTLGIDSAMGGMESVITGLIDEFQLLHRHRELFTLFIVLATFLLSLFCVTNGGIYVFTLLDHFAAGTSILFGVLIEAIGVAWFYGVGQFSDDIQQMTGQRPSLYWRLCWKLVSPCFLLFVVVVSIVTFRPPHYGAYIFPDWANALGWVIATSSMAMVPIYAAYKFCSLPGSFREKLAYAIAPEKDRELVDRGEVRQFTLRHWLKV
T13 sequence (P37231 whole entry): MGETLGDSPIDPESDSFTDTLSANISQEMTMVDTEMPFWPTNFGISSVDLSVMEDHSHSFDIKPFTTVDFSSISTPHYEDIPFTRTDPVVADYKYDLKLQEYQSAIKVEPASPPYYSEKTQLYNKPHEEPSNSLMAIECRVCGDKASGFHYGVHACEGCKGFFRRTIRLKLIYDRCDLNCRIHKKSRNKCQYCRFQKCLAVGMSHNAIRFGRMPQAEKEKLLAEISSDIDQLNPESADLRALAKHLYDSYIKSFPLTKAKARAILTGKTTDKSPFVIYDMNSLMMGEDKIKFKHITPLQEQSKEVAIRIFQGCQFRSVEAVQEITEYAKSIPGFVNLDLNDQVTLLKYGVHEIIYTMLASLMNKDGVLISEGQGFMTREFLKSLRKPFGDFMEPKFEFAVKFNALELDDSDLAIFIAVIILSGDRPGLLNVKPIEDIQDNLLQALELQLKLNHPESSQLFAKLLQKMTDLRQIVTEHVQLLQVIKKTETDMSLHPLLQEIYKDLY
T5 sequence (P08908 whole entry): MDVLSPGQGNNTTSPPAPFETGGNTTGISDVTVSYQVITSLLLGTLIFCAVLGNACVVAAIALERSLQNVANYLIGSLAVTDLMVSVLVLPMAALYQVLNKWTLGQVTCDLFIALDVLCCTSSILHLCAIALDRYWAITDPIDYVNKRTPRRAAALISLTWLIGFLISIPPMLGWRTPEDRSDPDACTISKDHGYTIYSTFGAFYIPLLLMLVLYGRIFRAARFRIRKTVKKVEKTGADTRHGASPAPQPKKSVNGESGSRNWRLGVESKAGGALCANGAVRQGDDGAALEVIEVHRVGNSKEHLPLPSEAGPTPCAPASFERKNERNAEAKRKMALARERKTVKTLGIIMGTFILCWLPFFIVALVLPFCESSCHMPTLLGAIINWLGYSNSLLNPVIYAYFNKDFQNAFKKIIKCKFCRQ
T3 sequence (P30556 whole entry): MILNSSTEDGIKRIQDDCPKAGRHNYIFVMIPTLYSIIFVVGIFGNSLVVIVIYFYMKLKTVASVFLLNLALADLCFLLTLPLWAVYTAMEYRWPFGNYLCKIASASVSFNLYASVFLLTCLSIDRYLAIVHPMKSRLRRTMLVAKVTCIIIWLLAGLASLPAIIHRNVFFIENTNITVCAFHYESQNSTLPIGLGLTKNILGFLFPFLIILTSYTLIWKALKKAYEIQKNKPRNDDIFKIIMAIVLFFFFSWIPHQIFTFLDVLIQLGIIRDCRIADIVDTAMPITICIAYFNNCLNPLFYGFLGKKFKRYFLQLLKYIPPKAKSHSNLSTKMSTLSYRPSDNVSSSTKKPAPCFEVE

Structure (SMILES): C[C@@H](Nc1ncnc2ccc(-c3cnc(Cl)c(NS(C)(=O)=O)c3)cc12)c1ccccc1 [MTX-531, (R)-N-(2-chloro-5-(4-((1-phenylethyl)amino)quinazolin-6-yl)pyridin-3-yl)methane-sulfonamide]
- inhibition at 10 µM [1]: -5%
- inhibition at 10 µM [2]: 51%
- inhibition at 10 µM [3]: 4%
- inhibition at 10 µM [4]: 4%
- inhibition at 10 µM [5]: 6%
- inhibition at 10 µM [6]: 5%
- inhibition at 10 µM [7]: 5%
- inhibition at 10 µM [8]: -4%
- inhibition at 10 µM [9]: 8%
- inhibition at 10 µM [10]: 12%
- inhibition at 10 µM [11]: -1%
- inhibition at 10 µM [12]: -2%
- inhibition at 10 µM [13]: 48%
- IC50 [14]: 6.4 nM
- IC50 [15]: 14.7 nM
